{"source": "patent US20020150615A1", "about": "“Injectable pharmaceutical composition comprising microdroplets of a camptothecin” (priority 2001, published 2002)", "origin": "cited, not measured here", "key": {"[1]": {"conditions": "human whole blood"}, "[2]": {"target": "human serum albumin (HSA) (Homo sapiens, UniProt P02768)", "sequence (P02768 25-609)": "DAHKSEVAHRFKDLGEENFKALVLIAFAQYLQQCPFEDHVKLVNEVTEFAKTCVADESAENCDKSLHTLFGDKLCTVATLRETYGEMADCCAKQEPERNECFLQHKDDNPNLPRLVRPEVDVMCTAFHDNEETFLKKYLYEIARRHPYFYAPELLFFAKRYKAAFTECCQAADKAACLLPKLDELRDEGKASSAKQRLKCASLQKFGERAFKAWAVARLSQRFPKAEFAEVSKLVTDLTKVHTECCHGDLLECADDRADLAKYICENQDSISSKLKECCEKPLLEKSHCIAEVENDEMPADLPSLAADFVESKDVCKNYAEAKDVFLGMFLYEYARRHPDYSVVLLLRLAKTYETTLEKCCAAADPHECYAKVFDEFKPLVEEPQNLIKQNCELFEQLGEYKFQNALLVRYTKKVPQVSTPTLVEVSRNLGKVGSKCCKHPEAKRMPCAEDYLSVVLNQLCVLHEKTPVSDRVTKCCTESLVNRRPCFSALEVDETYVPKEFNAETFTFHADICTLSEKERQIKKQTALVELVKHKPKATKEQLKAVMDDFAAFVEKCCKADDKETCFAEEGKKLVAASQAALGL", "conditions": "PBS at pH 7.4"}}, "data": [{"smiles": "CC[C@@]1(O)C(=O)OCc2c1cc1n(c2=O)Cc2cc3ccccc3nc2-1", "note": "[camptothecin, 20(S)-camptothecin]", "values": [{"measurement": "half-life of lactone ring opening", "setting": "[1]", "result": 22, "unit": "min"}, {"measurement": "affinity of the carboxylate form relative to the α-hydroxy lactone form", "setting": "[2]", "result": 150, "unit": "fold"}]}]}
